According to patent US5077407A, “Substituted 2-[monoannelated (3,4-,4,5-, and 5,6-) pyridylalkylenesulfinyl]benzimidazoles” (The Upjohn Company, priority 1988, dated 1991):
Like-named read-outs stand apart in the source and are kept apart here.

Assays:
(H^+ -K^+)ATP-ase = biological target: T1, (H^+ -K^+)ATP-ase (Rattus norvegicus, UniProt P09626); test: in vivo inactivation of (H+-K+)ATP-ase in the rat; details: for t1/2 of inhibition of rat gastric (H+ + K+) ATPase activity (duration of action): 10 mg/kg subcutaneously
T1 construct: from tissue; host or cells: stomach of the living rat (subcutaneous dosing)
From the text: Certain of the compounds of this invention are preferred because of their long duration of action when administered parenterally (e.g., subcutaneously).

[1] = tested on: acid secretion in isolated gastric glands; test: inhibition of acid secretion in isolated gastric glands of the rabbit; format: cell-based; details: Oryctolagus cuniculus, read-out: ID50, inhibition of acid secretion
gastric acid secretion = test: rat gastric antisecretory assay; format: in vivo
gastric(H^+ -K^+)ATP-ase = biological target: T2, gastric(H^+ -K^+)ATP-ase (Sus scrofa, UniProt P19156); test: inhibition of K+-dependent ATP hydrolysis by isolated hog gastric membranes enriched with gastric (H+-K+)ATP-ase; format: biochemical; details: read-out: ED50, inhibition of K+-dependent ATP hydrolysis
T2 construct: isolated hog gastric membranes; from tissue; host or cells: hog gastric membranes
T2 sequence (P19156 2-1034 limits assumed): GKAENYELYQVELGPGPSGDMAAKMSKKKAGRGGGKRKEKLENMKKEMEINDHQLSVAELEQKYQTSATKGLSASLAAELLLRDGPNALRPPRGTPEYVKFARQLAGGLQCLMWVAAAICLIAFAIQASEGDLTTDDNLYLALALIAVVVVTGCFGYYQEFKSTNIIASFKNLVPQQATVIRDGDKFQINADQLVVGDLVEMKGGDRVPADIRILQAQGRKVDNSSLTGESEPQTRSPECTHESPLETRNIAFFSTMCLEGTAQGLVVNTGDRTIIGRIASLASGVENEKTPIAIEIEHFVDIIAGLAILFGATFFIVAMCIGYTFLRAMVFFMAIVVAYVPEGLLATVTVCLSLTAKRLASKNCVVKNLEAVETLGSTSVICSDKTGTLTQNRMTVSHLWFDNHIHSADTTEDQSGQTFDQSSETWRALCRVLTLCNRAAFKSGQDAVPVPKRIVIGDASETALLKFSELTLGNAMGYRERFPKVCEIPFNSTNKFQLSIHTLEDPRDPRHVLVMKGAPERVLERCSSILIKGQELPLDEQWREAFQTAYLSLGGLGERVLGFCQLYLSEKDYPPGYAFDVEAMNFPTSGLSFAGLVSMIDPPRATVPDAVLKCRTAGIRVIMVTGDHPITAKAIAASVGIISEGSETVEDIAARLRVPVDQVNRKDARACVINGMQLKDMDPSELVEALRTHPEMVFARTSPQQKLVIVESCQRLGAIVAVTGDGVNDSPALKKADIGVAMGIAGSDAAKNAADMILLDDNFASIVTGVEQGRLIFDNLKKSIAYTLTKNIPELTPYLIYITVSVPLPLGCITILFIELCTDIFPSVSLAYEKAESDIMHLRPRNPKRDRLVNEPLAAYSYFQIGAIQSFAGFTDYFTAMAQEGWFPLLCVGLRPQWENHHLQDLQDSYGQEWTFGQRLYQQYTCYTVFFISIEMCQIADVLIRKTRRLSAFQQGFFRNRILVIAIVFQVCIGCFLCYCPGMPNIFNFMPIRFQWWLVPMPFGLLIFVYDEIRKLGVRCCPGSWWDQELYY
T2 sequence (P18434 whole entry partner): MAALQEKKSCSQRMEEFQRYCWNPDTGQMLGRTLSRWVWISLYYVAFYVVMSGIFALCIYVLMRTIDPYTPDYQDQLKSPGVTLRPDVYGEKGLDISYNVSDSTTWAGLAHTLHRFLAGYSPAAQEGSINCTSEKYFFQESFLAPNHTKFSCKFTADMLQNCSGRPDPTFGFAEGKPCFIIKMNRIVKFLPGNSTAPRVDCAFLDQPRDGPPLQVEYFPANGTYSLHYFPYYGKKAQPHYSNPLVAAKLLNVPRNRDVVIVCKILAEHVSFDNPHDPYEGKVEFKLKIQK

T1 sequence (P09626 2-1033 limits assumed): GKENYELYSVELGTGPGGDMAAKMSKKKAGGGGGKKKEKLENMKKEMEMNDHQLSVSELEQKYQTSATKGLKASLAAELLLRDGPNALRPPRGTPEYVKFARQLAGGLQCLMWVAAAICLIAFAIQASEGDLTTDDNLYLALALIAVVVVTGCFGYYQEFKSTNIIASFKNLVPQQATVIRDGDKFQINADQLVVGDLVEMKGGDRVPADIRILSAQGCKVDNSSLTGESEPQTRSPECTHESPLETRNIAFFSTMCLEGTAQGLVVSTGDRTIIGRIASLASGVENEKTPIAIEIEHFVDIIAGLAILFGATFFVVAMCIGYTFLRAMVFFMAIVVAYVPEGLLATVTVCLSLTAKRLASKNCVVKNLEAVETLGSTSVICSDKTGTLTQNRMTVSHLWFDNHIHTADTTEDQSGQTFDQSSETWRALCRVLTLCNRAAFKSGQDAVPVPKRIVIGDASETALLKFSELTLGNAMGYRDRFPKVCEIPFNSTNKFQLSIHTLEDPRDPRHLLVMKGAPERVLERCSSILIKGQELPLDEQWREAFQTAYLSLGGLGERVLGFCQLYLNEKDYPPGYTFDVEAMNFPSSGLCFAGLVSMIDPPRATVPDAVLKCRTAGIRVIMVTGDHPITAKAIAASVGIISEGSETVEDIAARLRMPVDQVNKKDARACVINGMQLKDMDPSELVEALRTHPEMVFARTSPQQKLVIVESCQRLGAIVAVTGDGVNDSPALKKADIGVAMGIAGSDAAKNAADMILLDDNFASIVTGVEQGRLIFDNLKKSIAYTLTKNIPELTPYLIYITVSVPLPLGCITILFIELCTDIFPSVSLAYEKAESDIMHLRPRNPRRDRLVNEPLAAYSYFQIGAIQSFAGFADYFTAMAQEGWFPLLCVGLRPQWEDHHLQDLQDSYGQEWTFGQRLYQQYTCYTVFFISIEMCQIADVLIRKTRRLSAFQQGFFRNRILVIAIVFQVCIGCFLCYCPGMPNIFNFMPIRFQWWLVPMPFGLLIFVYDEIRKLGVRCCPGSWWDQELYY
T1 sequence (P18598 whole entry partner): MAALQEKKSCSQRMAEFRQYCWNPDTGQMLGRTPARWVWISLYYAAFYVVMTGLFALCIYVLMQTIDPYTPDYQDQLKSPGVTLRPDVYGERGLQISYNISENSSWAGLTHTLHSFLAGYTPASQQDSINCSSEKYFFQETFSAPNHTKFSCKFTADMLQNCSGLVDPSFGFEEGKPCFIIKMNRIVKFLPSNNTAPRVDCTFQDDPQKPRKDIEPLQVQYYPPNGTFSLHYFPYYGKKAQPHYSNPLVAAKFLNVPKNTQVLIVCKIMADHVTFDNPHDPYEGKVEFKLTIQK

[O-][S+](Cc1nccc2c1CCCC2)c1nc2ccccc2[nH]1 (stereo not shown) [2-[(5,6,7,8-tetrahydroisoquinolin-1-ylmethyl)sulfinyl]benzimidazole]
t1/2 of inhibition of rat gastric (H+ + K+) ATPase activity (duration of action) ((H^+ -K^+)ATP-ase): 96 h

COc1ccc2nc([S+]([O-])Cc3nccc4c3CCCC4)[nH]c2c1 (stereo not shown) [Example 4, 2-[(5,6,7,8-Tetrahydroisoquinolin-1-yl)methyl]sulfinyl-5-methoxybenzimidazole]
IC50 [1]: 0.8 µM
ED50 (gastric acid secretion; sc, administered subcutaneously, read-out: ED50, inhibition of gastric acid secretion): 1.8 mg/kg

COc1ccc2nc([S+]([O-])Cc3nccc4c3CCCO4)[nH]c2c1 (stereo not shown) [Example 6, 2-[(6-Azachroman-5-yl)methyl]sulfinyl-5-methoxybenzimidazole]
IC50 (gastric(H^+ -K^+)ATP-ase): 10 µM
ED50 ((H^+ -K^+)ATP-ase; sc, administered subcutaneously): 1 mg/kg
ED50 (gastric acid secretion; administered intraduodenally, read-out: ED50, rat gastric antisecretory assay): 0.7 mg/kg

[O-][S+](Cc1nccc2c1CCCS2)c1nc2ccccc2[nH]1 (stereo not shown) [Example 10, 2-[(5-Thia-5,6,7,8-tetrahydroisoquinolin-1-ylmethyl)sulfinyl]-benzimidazole]
t1/2 of inhibition of rat gastric (H+ + K+) ATPase activity (duration of action) ((H^+ -K^+)ATP-ase): 48 h
